For 35 compounds, EC50 results are on record in PubChem BioAssay AID488792 (NMMLSC, 2010).

Each structure is given as a SMILES string. Calls of active or inactive are those of the source.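 How the source made its calls: active means EC50 at or below 33 microM; inactive means the rest.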

The test concerns S. cerevisiae AGP1-GFP strain, flow cytometry fluorescence, 3 h. As to the kind of experiment: yeast AGP1-GFP modulation, KU SAR set, cell-based, flow cytometry, S. cerevisiae, SAR follow-up (AID 488792).

As to `CCC(C)Nc1nc(N)c([N+](=O)[O-])c(Nc2cccc(F)c2)n1` (stereo not given), the EC50 is 63.1 µM (inactive).

With `Nc1nc(Nc2ccccc2)nc(Nc2cccc(F)c2)c1[N+](=O)[O-]`, the EC50 was 140 µM (inactive).

Consider `CCOC(=O)CCS(=O)(=O)c1nc(-c2ccccc2)cc(C(F)(F)F)n1`, for which the EC50 was 1.41 µM.

`O=C(OCn1ncc(Br)c(Br)c1=O)c1c(F)cccc1F`: the EC50 was 2.44 µM.

For the compound `CC(Oc1ccc(Br)cc1)C(=O)Nc1nc(-c2ccccn2)cs1` (stereo not given), the EC50 is 102 µM (inactive).

On to `CC(C)(C)C(=O)NC(=S)NNC(=O)c1ccc(-c2ccccc2)cc1`, for which the EC50 was 34.5 µM (inactive).

With `O=C(OCC(=O)N1CCN(C(=O)c2ccco2)CC1)c1cc(-c2cccc(Br)c2)nc2ccccc12`, the EC50 was 36.5 µM (inactive).

With `O=C(OCC(=O)N1CCN(C(=O)c2ccco2)CC1)c1cc(-c2ccc(F)cc2)nc2ccccc12`, the EC50 is 1.25 µM.

`COc1cccc(Nc2nc(N)c([N+](=O)[O-])c(Nc3cccc(F)c3)n2)c1`: the EC50 is 35 µM (inactive).

Take `O=C(Oc1c(Cl)cc(Cl)c2cccnc12)c1cccc([N+](=O)[O-])c1`: the EC50 was 34.8 µM (inactive).

For `CC(=O)c1ccc(N2CCN(C(=O)c3ccc(Br)cc3)CC2)c(F)c1`, the EC50 was 4.22 µM.

Consider `Cc1ccc(-c2nn(C(C)(C)C)c3ncnc(N)c23)cc1`, for which the EC50 was 300 µM (inactive).

On to `O=C(Nc1nc(-c2ccccn2)cs1)C1COc2ccccc2O1` (stereo not given), for which the EC50 is 72.9 µM (inactive).

`CC(=O)Nc1ncnc2c1c(-c1ccc(Cl)cc1)nn2C(C)(C)C`: the EC50 was 137 µM (inactive).

For `CCN(CC)C(=O)Oc1ccnc2cc(Cl)ccc12`, the concentration for a half-maximal effect (EC50) is 32.2 µM.

Turning to `Cc1ccc(S(=O)(=O)c2ccc([N+](=O)[O-])cn2)cc1`, the concentration for a half-maximal effect (EC50) was 4.42 µM.

Turning to `CN1CCN(C(=O)c2cc(COc3c(F)cccc3F)on2)CC1c1ccccc1` (stereo not given), the EC50 was 14.1 µM.

On to `CC(C)(C)n1nc(-c2ccc(F)cc2)c2c(N)ncnc21`, for which the EC50 is 174 µM (inactive).

In the case of `C/C(=N\NC(=O)c1cccc(Br)c1)c1ccccn1`, the EC50 is 34.1 µM (inactive).

Take `O=[N+]([O-])c1cc(O)c2ncccc2c1`: the EC50 is 34.3 µM (inactive).

As to `CCOC(=O)CS(=O)(=O)c1nc(-c2ccccc2)cc(C(F)(F)F)n1`, the EC50 is 1.74 µM.

`Cn1ncc(S(=O)(=O)Cc2ccccc2)c(Cl)c1=O`: the EC50 was 105 µM (inactive).

On to `O=C(c1ccc(C(=O)N2CCCc3ccccc32)s1)N1CCCc2ccccc21`, for which the EC50 was 0.46 µM.

In the case of `O=[N+]([O-])c1ccc(O)c2ncccc12`, the half-maximal effective concentration (EC50) is 5.98 µM.

Take `CC(C)(C)n1nc(-c2ccc(Cl)cc2)c2c(N)ncnc21`: the half-maximal effective concentration (EC50) was 10.8 µM.

Regarding `O=[N+]([O-])c1cc(Cl)c2cccnc2c1O`, the EC50 is 62 µM (inactive).

For the compound `CC(=O)SC(C[N+](=O)[O-])c1cn(C(C)=O)c2ccccc12` (stereo not given), the EC50 was 60.4 µM (inactive).

In the case of `CC(C)(C)C(=O)C(Cl)C(=O)Nc1ccccc1` (stereo not given), the EC50 was 2.09 µM.

As to `Cc1ccc(C(c2cc(Cl)c3cccnc3c2O)N2CCN(C)CC2)cc1` (stereo not given), the EC50 is 98.6 µM (inactive).

On to `Nc1nc(Nc2cccc(Cl)c2)nc(Nc2cccc(F)c2)c1[N+](=O)[O-]`, for which the EC50 was 312 µM (inactive).

With `Cc1cc(C(=O)Nc2nc(-c3ccccn3)cs2)ccc1[N+](=O)[O-]`, the EC50 is 57.5 µM (inactive).

On to `Cc1ccc2nc(Cl)c3nnnn3c2c1`, for which the EC50 is 0.24 µM.

Regarding `COC(=O)CCS(=O)(=O)c1nc(-c2ccccc2)cc(C(F)(F)F)n1`, the EC50 is 0.3 µM.

For the compound `CNc1nc(N)c([N+](=O)[O-])c(Nc2cccc(F)c2)n1`, the concentration giving a half-maximal response (EC50) is 10.7 µM.

Consider `Nc1cc(Oc2cccc(Cl)c2)nc(NCc2ccccc2)n1`, for which the EC50 was 263 µM (inactive).
